Data taken from patent US20120009280A1, “METHOD OF REDUCING THE RATE OF DEGRADATION OF A BIOLOGICAL MATERIAL” (Bio-Energy Ingredients Limited, priority 2009, published 2012).

Key:
[1] = pH of suspensions of grain samples in distilled water or PBS; details: 1% (w/w) in distilled water
Method: The untreated sample (A) was compared visually against the corresponding quicklime-treated sample (B).
On Day 7, 10 g amounts of each sample were suspended in either 90 ml PBS or 90 ml sterile distilled water and shaken for 10 minutes. The pH of each suspension was then measured and compared.
On Day 9, 10 g of each sample was suspended in 90 ml PBS and shaken for 10 minutes. The pH was measured.

[2] = system: yeast; assay: Yeast count of spent brewer's / wet distiller's grains stored at ambient temperature; type: cell-based
[3] = system: total micro-organism; assay: Total microbial (plate) count of spent brewer's / wet distiller's grains stored at ambient temperature; type: cell-based; parameters: total microbial count: unit: cfu/gram; details: for preservation effect period: Example 18; for total microbial count: powder 10% (w/w)
How it was run: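 Spent brewer's grains taken from a brewery discharge line were mixed at the laboratory and treated with powdered commercial calcium oxide containing approximately 94% CaO. Each batch was kept under insect-proof screens at ambient temperature, with no further treatment or agitation. Samples were drawn every seven days, and the entire sample was sent to a microbiological testing facility for total microbial counts.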

[4] = 10% Ca-DGO (w/w) granules, week 1
[5] = 10% Ca-DGO (w/w) granules, week 2
[6] = 10% Ca-DGO (w/w) granules, week 3
[7] = 10% Ca-DGO (w/w) granules, week 4
[8] = 10% Ca-DGO (w/w) granules, week 5
[9] = 10% Ca-DGO (w/w) powder, week 1
[10] = 10% Ca-DGO (w/w) powder, week 2
[11] = 10% Ca-DGO (w/w) powder, week 3
[12] = 10% Ca-DGO (w/w) powder, week 4
[13] = 10% Ca-DGO (w/w) powder, week 5
[14] = 20% Ca-DGO (w/w) powder, week 1
[15] = 20% Ca-DGO (w/w) powder, week 2
[16] = 20% Ca-DGO (w/w) powder, week 3
[17] = 20% Ca-DGO (w/w) powder, week 4
[18] = 20% Ca-DGO (w/w) powder, week 5
[19] = 40% Ca-DGO (w/w) powder, week 1
[20] = 40% Ca-DGO (w/w) powder, week 2
[21] = 40% Ca-DGO (w/w) powder, week 3
[22] = 40% Ca-DGO (w/w) powder, week 4
[23] = 40% Ca-DGO (w/w) powder, week 5

With `[Ca+2].[O-]CC(O)CO.[O-]CC(O)CO` [calcium diglyceroxide] the pH [1, 4] was 7.88, the pH [1, 5] was 7.71 and the pH [1, 6] was 7.44. For the same molecule, the pH [1, 7] was 7.14, the pH [1, 8] was 8.37 and the pH [1, 9] was 9.43. For the same molecule, the pH [1, 10] was 7.32, the pH [1, 11] was 7.31 and the pH [1, 12] was 8.01. For the same molecule, the pH [1, 13] was 7.23, the pH [1, 14] was 11.47 and the pH [1, 15] was 11.16. The pH [1, 16] was 12.00, the pH [1, 17] was 11.23 and the pH [1, 18] was 10.83. It also gave a pH [1, 19] of 11.66, a pH [1, 20] of 11.50 and a pH [1, 21] of 12.30. The pH [1, 22] was 11.52, the pH [1, 23] was 11.13 and the “Yeast Count” value [2, 4] was 480 cfu/gram. The “Yeast Count” value [2, 5] was less than 10 cfu/gram, the “Yeast Count” value [2, 6] was less than 10 cfu/gram and the “Yeast Count” value [2, 7] was less than 19 cfu/gram. For the same molecule, the “Yeast Count” value [2, 8] was less than 10 cfu/gram, the “Yeast Count” value [2, 9] was less than 10 cfu/gram and the “Yeast Count” value [2, 10] was less than 10 cfu/gram. For the same molecule, the “Yeast Count” value [2, 11] was less than 10 cfu/gram, the “Yeast Count” value [2, 12] was less than 10 cfu/gram and the “Yeast Count” value [2, 13] was less than 10 cfu/gram. The “Yeast Count” value [2, 14] was 10 cfu/gram, the “Yeast Count” value [2, 15] was 10 cfu/gram and the “Yeast Count” value [2, 16] was 10 cfu/gram. The “Yeast Count” value [2, 17] was 10 cfu/gram, the “Yeast Count” value [2, 18] was 10 cfu/gram and the “Yeast Count” value [2, 19] was 10 cfu/gram. The “Yeast Count” value [2, 20] was 10 cfu/gram, the “Yeast Count” value [2, 21] was 20 cfu/gram and the “Yeast Count” value [2, 22] was 10 cfu/gram. The “Yeast Count” value [2, 23] was 10 cfu/gram, the Total plate count [3, 4] was 11000 cfu/gram and the Total plate count [3, 5] was less than 10 cfu/gram. The Total plate count [3, 6] was 540 cfu/gram, the Total plate count [3, 7] was 60 cfu/gram and the Total plate count [3, 8] was 650 cfu/gram. For the same molecule, the Total plate count [3, 9] was 610 cfu/gram, the Total plate count [3, 10] was less than 10 cfu/gram and the Total plate count [3, 11] was 580 cfu/gram. It also gave a Total plate count [3, 12] of 5000 cfu/gram, a Total plate count [3, 13] of 36000 cfu/gram and a Total plate count [3, 14] of 80 cfu/gram. The Total plate count [3, 15] was 310 cfu/gram, the Total plate count [3, 16] was 140 cfu/gram and the Total plate count [3, 17] was 40 cfu/gram. It also gave a Total plate count [3, 18] of 10 cfu/gram, a Total plate count [3, 19] of 40 cfu/gram and a Total plate count [3, 20] of 450 cfu/gram. It also gave a Total plate count [3, 21] of 103 cfu/gram, a Total plate count [3, 22] of 10 cfu/gram and a Total plate count [3, 23] of 10 cfu/gram. For the same molecule, the preservation effect period ([3]; granule form 15% (w/w)) was 9 week, the total microbial count ([3]; 3 week time point) was 580 and the total microbial count ([3]; week 4) was 5,000. The total microbial count ([3]; week 5) was 36,000 and the preservation effect period ([3]; powder form 15% (w/w)) was 9 week.
